Values joined by “and” are separate entries in the source; they are usually repeats but may differ in a detail not shown here. Identical values can stand only once.
Columns and labels:
T50 bladder carcinoma = assay: Inhibition of in vivo growth of T50 bladder carcinoma in C3H mice; settings: for tumor volume (group mean): Halofuginone containing diet 5 mg/kg; for T50 Tumor Size: individual mice, diet containing 5 mg/kg Halofuginone, day 17
Experimental: C3H mice were divided into two groups (6 mice each). The experimental group received a diet containing 5 mg/kg of Halofuginone 3 days prior to the injection of T50 bladder carcinoma cells and during 2 weeks after. […] The right side received 0.4 * 10^5 cells, and the left side received 2 * 10^5 cells. The tumor size was estimated by measurement of tumor length in two directions, using the formula V=LW^2/2, where V is volume, L is length and W is width. At the end of the experiment at day 17, the mice were weighed, the tumors were excised and a sample of the tumor tissue was fixed and processed for histological examination.

collagen type I = settings: in vitro; cited from earlier work
EHS sarcoma = assay: Inhibition of in vivo growth of EHS tumor in C57BL/6 mice
Experimental: Animals bearing Engelbreth-Holm-Swarm (EHS) tumors were sacrificed and the tumor tissue was excised and minced under aseptic conditions. The EHS tumor is characterized by a large amount of basement membrane components. A suspension of the tumor tissue in 0.2 ml of PBS was injected subcutaneously in the dorsal posterior region of C57BL/6 male mice. The mice were divided into two groups of 10 mice each. The animals of the experimental group were fed with a diet containing 5 mg/kg Halofuginone for 3 days prior to tumor injection and during 3 weeks after. The tumor size was estimated by measurement of tumor length in two directions, using the formula V=LW^2/2. On the final day of the experiment, i.e., 20 days after tumor injector, the mice were weighed the tumors were exceed and a sample of the tumor tissue was fixed and processed for histological examination.

O=C(CC1NCCCC1O)Cn1cnc2cc(Br)c(Cl)cc2c1=O (centres unmarked) [Halofuginone]
reduction of tumor size compared to control mice (T50 bladder carcinoma; C3H mice, diet 5 mg/kg Halofuginone): 70-80% | overall weight of mice (T50 bladder carcinoma; Halofuginone treated C3H mice, lower due to lower tumor burden): 24 ± 3.1 g | tumor volume (group mean) (T50 bladder carcinoma; high tumor cell dose): 1.0±0.92 cm^3 | T50 Tumor Size (T50 bladder carcinoma; 0.4 * 10^5 cells s.c.): 0.730 cm^3 and 0.510 cm^3 and 0.036 cm^3 and 0.064 cm^3 and 0.150 cm^3 | T50 Tumor Size (T50 bladder carcinoma; 2 * 10^5 cells s.c.): 2.0 cm^3 and 1.1 cm^3 (2×) and 0.7 cm^3 and 0.1 cm^3 | tumor volume (group mean) (T50 bladder carcinoma; lower tumor cell dose): 0.29±0.28 cm^3 | synthesis of collagen type I in bone chondrocytes (collagen type I): inhibits the synthesis of collagen type I | tumor volume (group mean) (EHS sarcoma; C57BL/6 mice fed Halofuginone 5 mg/kg diet): 1.72±1.85 cm^3 | reduction of tumor size compared to control mice (EHS sarcoma; C57BL/6 mice, diet 5 mg/kg Halofuginone): about 75% | weight of mice (EHS sarcoma; Halofuginone-fed C57BL/6 mice, nearly normal weight): 19.7 ± 0.47 g | EHS Tumor Size (EHS sarcoma; individual mice, diet 5 mg/kg Halofuginone, 20 days after tumor injection): 0 cm^3 (2×) and 2.2 cm^3 and 0.04 cm^3 and 6.5 cm^3 and 3.0 cm^3 and 1.3 cm^3 (2×) and 1.2 cm^3 and 1.7 cm^3

Reference: patent US6420371B1, “Quinazolinone-containing pharmaceutical compositions for prevention of neovascularization and for treating malignancies” (Madasit Medical Research Services & Development Co., Ltd., priority 1997, dated 2002)
